Data reported in patent publication US10441562B2, “Aromatic farnesyl compound and application thereof” (INSTITUTE OF MICROBIOLOGY, CHINESE ACADEMY OF SCIENCES, priority 2015, dated 2019).
Marks after values point to notes of the source that are not given here.

Experiments:
Format in all cases: in vivo
[1] = body weight of hyperglycemia KK-A^y mice
Experimental: (§1) Materials: accurately weigh the 2 compounds S13 and S28 discussed in example 2, and then add 0.5% CMC-Na to make the solution of 5 mg/ml used for activity test. KK-A^y mice are purchased from Chinese Academy of Medical Sciences & Peking Union Medical College Institute of Animal Studies. Experiments are carried out after adapting to the environment (T=20-24° C., constant humidity: 50-60%, 12 hours light exposure (8:00-20:00), soundproof, free feeding and drinking) for 1 week. Glucometer is purchased from Roche.
(§2) Methods: 10 male C57 mice of 6-8 weeks of 20-22 g are used as normal control group (1). Detect the fasting glucose of male KK-A^y mice, which are 6-8 weeks with the weight of 28-32 g, and divide them into different groups according to the blood sugar level and body weight: (2) model control group, (3) which is administered by compound S13 with the dose of 1 mg/kg, (4) which is administered by compound S13 with the dose of 5 mg/kg, (5) which is administered by compound S13 with the dose of 10 mg/kg, (6) which is administered by compound S13 with the dose of 20 mg/kg, (7) which is administered by compound S28 with the dose of 1 mg/kg, (8) which is administered by compound S28 with the dose of 5 mg/kg, (9) which is administered by compound S28 with the dose of 10 mg/kg, (10) which is administered by compound S28 with the dose of 20 mg/kg, (11) which is administered by metformin with the dose of 8 g/kg, (12) which is administered by compound S13 with the dose of 2.5 mg/kg and metformin with the dose of 4 g/kg, (13) which is administered by compound S13 with the dose of 5 mg/kg and metformin with the dose of 4 g/kg, (14) which is administered by compound S28 with the dose of 2.5 mg/kg and metformin with the dose of […], (15) which is administered by compound S28 with the dose of 5 mg/kg and metformin with the dose of […]. Each group has 8 mice, and is administrated successively for 3 weeks. Model control group is given with equal amounts of 0.5% CMC-Na.
(§3) 2) Effects on body weight and blood sugar: the body weight of mice are recorded at the 2th, 5th, 8th, 11th, 14th, 17th, 20th day after administration, and blood is collected from tip of tail to detect the blood sugar level (see table 10).

[2] = system: Wister rats fed with choline deficient diet; experiment: non-alcohol fatty liver disease in rats fed choline deficient (high-fat) diet; conditions: for ALT / HDL-C / LDL-C / Liver index / TC / TG: 4 weeks
Experimental: Serum total cholesterol kit (batch number 20131112), low density lipoprotein LDL-C kit (batch number 20140114), high density lipoprotein HDL-C kit (batch number 20140413), triglyceride TG kit (batch number 20131226) and glutamic-pyruvic transaminase ALT kit (batch number 20131006) are purchased from Nanjing Jiancheng Bioengineering Institute.
Methods: male SPF level Wister rats are randomly divided into groups: (1) normal group (2) model control group (3) which is administered by compound S13 with the dose of 10 mg/kg (4) which is administered by compound S13 with the dose of 20 mg/kg (5) which is administered by compound S28 with the dose of 10 mg/kg […] which is administered by compound S28 with the dose of 20 mg/kg. Each group has 10 mice. The mice of normal group are fed with standard diet, the mice of other groups are fed with choline deficient diet (high-fat diet). Food intake and body weight are detected. Feeding with choline deficient diet are considered as a frequently-used hepatic adipose infiltration modeling method of rodent, which can induce the denaturation of hepatocyte, hepatitis and liver injury, at the same time the increase of blood lipid level can induce the insulin resistance.
After being fed with high-fat diet for 8 weeks, the mice of treated group are given drugs for 4 weeks successively. Model group and normal group are given with equal amounts of 0.5% CMC-Na. After administration of medicine for 4 weeks, the rats are executed under anesthesia, and then hepatic tissue and blood are collected.
2) Contents of serum total cholesterol, low density lipoprotein, high density lipoprotein and triglyceride.
3) Contents of glutamic-pyruvic transaminase.

[3] = system: hyperglycemia KK-A^y mice; experiment: blood sugar of hyperglycemia KK-A^y mice; set-up: blood sugar: unit not given here; conditions: for blood sugar at the 1st day, 0: 1st day 0 h; for blood sugar at the 1st day, 30 min: 1st day 30 min after intragastric administration
Experimental: as §1, §2
1) Effects of drugs on blood sugar: at the first day after administration, the mice are fasted for 2 hours and blood is collected (0 h) to detect the fasting blood sugar. After the compound is given to the mice by intragastric administration for 30 min, blood is collected from tip of tail to detect the blood sugar level.
as §3

[4] = 2st day, 20 mg/kg, groups 6, 10
[5] = 5st day, 20 mg/kg, groups 6, 10
[6] = 8st day, 20 mg/kg, groups 6, 10
[7] = 11st day, 10 mg/kg, groups 5, 9
[8] = 11st day, 20 mg/kg, groups 6, 10
[9] = 14st day, 10 mg/kg, groups 5, 9
[10] = 14st day, 20 mg/kg, groups 6, 10
[11] = 17st day, 10 mg/kg, groups 5, 9
[12] = 17st day, 20 mg/kg, groups 6, 10
[13] = 20st day, 10 mg/kg, groups 5, 9
[14] = 20st day, 20 mg/kg, groups 6, 10

CC(C)=CCC/C(C)=C/CCC1=C[C@@H](c2cc(O)ccc2O)OC1=O [S28, (S,E)-5-(2,5-dihydroxyphenyl)-3-(4,8-dimethylnona-3,7-dien-1-yl)furan-2(5H)-one]
effect on body weight (in words) [1]: litter effect on body weight | Body weight ([1]; 2st day, 1 mg/kg, groups 3, 7): 30.1 g | Body weight ([1]; 2st day, 5 mg/kg, groups 4, 8): 30.3 g | Body weight ([1]; 2st day, 10 mg/kg, groups 5, 9): 30.3 g | Body weight [1, 4]: 30.4 g | Body weight ([1]; 5st day, 1 mg/kg, groups 3, 7): 30.23 g | Body weight ([1]; 5st day, 5 mg/kg, groups 4, 8): 30.43 g | Body weight ([1]; 5st day, 10 mg/kg, groups 5, 9): 30.51 g | Body weight [1, 5]: 30.36 g | Body weight ([1]; 8st day, 1 mg/kg, groups 3, 7): 30.6 g | Body weight ([1]; 8st day, 5 mg/kg, groups 4, 8): 30.8 g | Body weight ([1]; 8st day, 10 mg/kg, groups 5, 9): 30.4 g | Body weight [1, 6]: 30.2 g | Body weight ([1]; 11st day, 1 mg/kg, groups 3, 7): 30.8 g | Body weight ([1]; 11st day, 5 mg/kg, groups 4, 8): 31.3 g | Body weight [1, 7]: 31.4 g | Body weight [1, 8]: 30.5 g | Body weight ([1]; 14st day, 1 mg/kg, groups 3, 7): 31.25 g | Body weight ([1]; 14st day, 5 mg/kg, groups 4, 8): 31.76 g | Body weight [1, 9]: 32.56 g | Body weight [1, 10]: 30.4 g | Body weight ([1]; 17st day, 1 mg/kg, groups 3, 7): 31.4 g | Body weight ([1]; 17st day, 5 mg/kg, groups 4, 8): 31.5 g | Body weight [1, 11]: 32.6 g | Body weight [1, 12]: 30.7 g | Body weight ([1]; 20st day, 1 mg/kg, groups 3, 7): 32.1 g | Body weight ([1]; 20st day, 5 mg/kg, groups 4, 8): 31.3 g | Body weight [1, 13]: 32.2 g | Body weight [1, 14]: 30.2 g | effect on liver index of fatty liver rats (in words) [2]: effectively decrease the liver index of fatty liver rats | ALT ([2]; 10 mg/kg): 45.97** U/L | HDL-C ([2]; 10 mg/kg): 0.61** mmol/L | LDL-C ([2]; 10 mg/kg): 0.79** mmol/L | Liver index ([2]; 10 mg/kg): 2.91** | TC ([2]; 10 mg/kg): 1.95** mmol/L | TG ([2]; 10 mg/kg): 1.38** mmol/L | ALT ([2]; 20 mg/kg): 41.08** U/L | HDL-C ([2]; 20 mg/kg): 0.68** mmol/L | LDL-C ([2]; 20 mg/kg): 0.70** mmol/L | Liver index ([2]; 20 mg/kg): 2.58** | TC ([2]; 20 mg/kg): 1.36** mmol/L | TG ([2]; 20 mg/kg): 1.15** mmol/L | effect on blood sugar of hyperglycemia mice (in words) [3]: significant effects on blood sugar of hyperglycemia mice | blood sugar at the 1st day, 0 ([3]; 1 mg/kg, groups 3, 7): 14.5 | blood sugar at the 1st day, 0 ([3]; 5 mg/kg, groups 4, 8): 14.5 | blood sugar at the 1st day, 0 ([3]; 10 mg/kg, groups 5, 9): 14.2 | blood sugar at the 1st day, 0 ([3]; 20 mg/kg, groups 6, 10): 14.1 | blood sugar at the 1st day, 30 min ([3]; 1 mg/kg, groups 3, 7): 11.3 | blood sugar at the 1st day, 30 min ([3]; 5 mg/kg, groups 4, 8): 9.42 | blood sugar at the 1st day, 30 min ([3]; 10 mg/kg, groups 5, 9): 9.32 | blood sugar at the 1st day, 30 min ([3]; 20 mg/kg, groups 6, 10): 6.24 | blood sugar ([3]; 2st day, 1 mg/kg, groups 3, 7): 17.23 | blood sugar ([3]; 2st day, 5 mg/kg, groups 4, 8): 10.2 | blood sugar ([3]; 2st day, 10 mg/kg, groups 5, 9): 13.12 | blood sugar [3, 4]: 13.25 | blood sugar ([3]; 5st day, 1 mg/kg, groups 3, 7): 14.1 | blood sugar ([3]; 5st day, 5 mg/kg, groups 4, 8): 10.8 | blood sugar ([3]; 5st day, 10 mg/kg, groups 5, 9): 13.5 | blood sugar [3, 5]: 12.5 | blood sugar ([3]; 8st day, 1 mg/kg, groups 3, 7): 13.8 | blood sugar ([3]; 8st day, 5 mg/kg, groups 4, 8): 7.12 | blood sugar ([3]; 8st day, 10 mg/kg, groups 5, 9): 14.1 | blood sugar [3, 6]: 12.8 | blood sugar ([3]; 11st day, 1 mg/kg, groups 3, 7): 15.3 | blood sugar ([3]; 11st day, 5 mg/kg, groups 4, 8): 8.21 | blood sugar [3, 7]: 14.3 | blood sugar [3, 8]: 12.9 | blood sugar ([3]; 14st day, 1 mg/kg, groups 3, 7): 12.4 | blood sugar ([3]; 14st day, 5 mg/kg, groups 4, 8): 8.3 | blood sugar [3, 9]: 13.2 | blood sugar [3, 10]: 12.5 | blood sugar ([3]; 17st day, 1 mg/kg, groups 3, 7): 13.1 | blood sugar ([3]; 17st day, 5 mg/kg, groups 4, 8): 8.2 | blood sugar [3, 11]: 14.5 | blood sugar [3, 12]: 12.5 | blood sugar ([3]; 20st day, 1 mg/kg, groups 3, 7): 12.43 | blood sugar ([3]; 20st day, 5 mg/kg, groups 4, 8): 10.23 | blood sugar [3, 13]: 14.12 | blood sugar [3, 14]: 12.45
